# Reference: PubChem BioAssay AID2060893 (Molecular Pharmacology Branch, DTP, NCI, 2025)
# Tested on: K86415-001-R-J1-PDC complex spheroids, viability
# Assay: Anticancer human tumor K86415-001-R-J1-PDC patient-derived lung adenocarcinoma cell line growth inhibition [RAS]
# Settings: for IC50: curve of first compound; for viability, T/C: stronger effect = lower value
# Procedure, shortened: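 Agents were tested in combination matrices in half-log decrements from a top concentration at or near clinical Cmax (10 microM if undetermined). Targets were multi-cell spheroids of tumour lines plus HUVEC and MSC stromal cells.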
# [1] = second compound 0.000949 µM, first compound 0.0316 µM
# [2] = second compound 0.000949 µM, first compound 0.1 µM
# [3] = second compound 0.000949 µM, first compound 0.316 µM
# [4] = second compound 0.000949 µM, first compound 1 µM
# [5] = second compound 0.003 µM, first compound 0.0316 µM
# [6] = second compound 0.003 µM, first compound 0.1 µM
# [7] = second compound 0.003 µM, first compound 0.316 µM
# [8] = second compound 0.003 µM, first compound 1 µM
# [9] = second compound 0.00949 µM, first compound 0.0316 µM
# [10] = second compound 0.00949 µM, first compound 0.1 µM
# [11] = second compound 0.00949 µM, first compound 0.316 µM
# [12] = second compound 0.00949 µM, first compound 1 µM
# [13] = second compound 0.03 µM, first compound 0.0316 µM
# [14] = second compound 0.03 µM, first compound 0.1 µM
# [15] = second compound 0.03 µM, first compound 0.316 µM
# [16] = second compound 0.03 µM, first compound 1 µM
# [17] = second compound 0.0949 µM, first compound 0.0316 µM
# [18] = second compound 0.0949 µM, first compound 0.1 µM
# [19] = second compound 0.0949 µM, first compound 0.316 µM
# [20] = second compound 0.0949 µM, first compound 1 µM
# [21] = second compound 0.3 µM, first compound 0.0316 µM
# [22] = second compound 0.3 µM, first compound 0.1 µM
# [23] = second compound 0.3 µM, first compound 0.316 µM
# [24] = second compound 0.3 µM, first compound 1 µM
# 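Also: spheroids exposed to agents for seven days before readout.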
compound,measurement,setting,value
CC(Nc1ccc2c(c1)OCCn1cc(N3C(=O)OCC3C(F)F)nc1-2)C(N)=O (centres undefined) + CCn1c(-c2cc(N3CCN(C)CC3)cnc2C(C)OC)c2c3cc(ccc31)-c1csc(n1)CC(NC(=O)C1CC1C)C(=O)N1CCCC(N1)C(=O)OCC(C)(C)C2,IC50,second compound 0.000949 µM,< 31.6 nM
same,IC50,second compound 0.003 µM,< 31.6 nM
same,IC50,second compound 0.00949 µM,< 31.6 nM
same,IC50,second compound 0.03 µM,< 31.6 nM
same,IC50,second compound 0.0949 µM,< 31.6 nM
same,IC50,second compound 0.3 µM,< 31.6 nM
same,"viability, T/C",[1],44.1%
same,"viability, T/C",[2],28.2%
same,"viability, T/C",[3],22.2%
same,"viability, T/C",[4],20.6%
same,"viability, T/C","second compound 0.000949 µM, first compound 3.16 µM",16.6%
same,"viability, T/C","second compound 0.000949 µM, first compound 10 µM",6.57%
same,"viability, T/C",[5],18.8%
same,"viability, T/C",[6],12.9%
same,"viability, T/C",[7],12.1%
same,"viability, T/C",[8],8.44%
same,"viability, T/C","second compound 0.003 µM, first compound 3.16 µM",5.02%
same,"viability, T/C","second compound 0.003 µM, first compound 10 µM",1.84%
same,"viability, T/C",[9],11.8%
same,"viability, T/C",[10],4.96%
same,"viability, T/C",[11],3.08%
same,"viability, T/C",[12],2.36%
same,"viability, T/C","second compound 0.00949 µM, first compound 3.16 µM",1.25%
same,"viability, T/C","second compound 0.00949 µM, first compound 10 µM",0.72%
same,"viability, T/C",[13],4.01%
same,"viability, T/C",[14],1.42%
same,"viability, T/C",[15],1.24%
same,"viability, T/C",[16],1.2%
same,"viability, T/C","second compound 0.03 µM, first compound 3.16 µM",0.54%
same,"viability, T/C","second compound 0.03 µM, first compound 10 µM",0.63%
same,"viability, T/C",[17],1.94%
same,"viability, T/C",[18],1.08%
same,"viability, T/C",[19],0.93%
same,"viability, T/C",[20],0.62%
same,"viability, T/C","second compound 0.0949 µM, first compound 3.16 µM",0.8%
same,"viability, T/C","second compound 0.0949 µM, first compound 10 µM",0.59%
same,"viability, T/C",[21],2.35%
same,"viability, T/C",[22],0.93%
same,"viability, T/C",[23],0.73%
same,"viability, T/C",[24],0.47%
same,"viability, T/C","second compound 0.3 µM, first compound 3.16 µM",0.85%
same,"viability, T/C","second compound 0.3 µM, first compound 10 µM",0.49%
O=C(c1ccc(F)c(F)c1Nc1ccc(I)cc1F)N1CC(O)([C@@H]2CCCCN2)C1 + CCn1c(-c2cc(N3CCN(C)CC3)cnc2C(C)OC)c2c3cc(ccc31)-c1csc(n1)CC(NC(=O)C1CC1C)C(=O)N1CCCC(N1)C(=O)OCC(C)(C)C2,IC50,second compound 0.000949 µM,< 3.16 nM
same,IC50,second compound 0.003 µM,< 3.16 nM
same,IC50,second compound 0.00949 µM,< 3.16 nM
same,IC50,second compound 0.03 µM,< 3.16 nM
same,IC50,second compound 0.0949 µM,< 3.16 nM
same,IC50,second compound 0.3 µM,< 3.16 nM
same,"viability, T/C","second compound 0.000949 µM, first compound 0.00316 µM",44.4%
same,"viability, T/C","second compound 0.000949 µM, first compound 0.01 µM",36.8%
same,"viability, T/C",[1],16.1%
same,"viability, T/C",[2],14.3%
same,"viability, T/C",[3],7.06%
same,"viability, T/C",[4],3.12%
same,"viability, T/C","second compound 0.003 µM, first compound 0.00316 µM",20.1%
same,"viability, T/C","second compound 0.003 µM, first compound 0.01 µM",12.8%
same,"viability, T/C",[5],8.83%
same,"viability, T/C",[6],4.83%
same,"viability, T/C",[7],3.13%
same,"viability, T/C",[8],1.88%
same,"viability, T/C","second compound 0.00949 µM, first compound 0.00316 µM",12.8%
same,"viability, T/C","second compound 0.00949 µM, first compound 0.01 µM",20.7%
same,"viability, T/C",[9],3.97%
same,"viability, T/C",[10],3.06%
same,"viability, T/C",[11],1.18%
same,"viability, T/C",[12],1.4%
same,"viability, T/C","second compound 0.03 µM, first compound 0.00316 µM",3.31%
same,"viability, T/C","second compound 0.03 µM, first compound 0.01 µM",1.65%
same,"viability, T/C",[13],2.04%
same,"viability, T/C",[14],1.29%
same,"viability, T/C",[15],1.25%
same,"viability, T/C",[16],0.85%
same,"viability, T/C","second compound 0.0949 µM, first compound 0.00316 µM",2.17%
same,"viability, T/C","second compound 0.0949 µM, first compound 0.01 µM",1.59%
same,"viability, T/C",[17],1.36%
same,"viability, T/C",[18],0.82%
same,"viability, T/C",[19],0.8%
same,"viability, T/C",[20],0.95%
same,"viability, T/C","second compound 0.3 µM, first compound 0.00316 µM",2.23%
same,"viability, T/C","second compound 0.3 µM, first compound 0.01 µM",1.56%
same,"viability, T/C",[21],1.42%
same,"viability, T/C",[22],0.74%
same,"viability, T/C",[23],0.89%
same,"viability, T/C",[24],0.77%
